Measured values taken from US20250090567A1, “5-FU AND RNAOG COMBINED IMMUNOCHEMOTHERAPY FOR PANCREATIC CANCER TREATMENT” (ARIZONA BOARD OF REGENTS ON BEHALF OF ARIZONA STATE …, priority 2022, published 2025).

Tested on: MiaPaca-2-iRFP tumors
Experiment: In vivo efficacy, subcutaneous MiaPaca-2-iRFP xenograft, intratumor treatment
Conditions: nude mice, twice a week, total 7 times
Procedure: FIG. 4A. schematic illustration of tumor inoculation and treatment schedule. Nude mice received subcutaneous (SC) injection of […] MiaPaca2-iRFP on day 0. Starting on week 4, the mice received intratumor injections of PBS, 5FU, RNAOG, RNAOG+5FU, or 5FU-RNAOG twice a week for total 7 times.
FIG. 4B. Tumor progression monitored by LI-COR Imaging of near infrared fluorescence intensity from the MiaPaca2-iRFP cell line that expresses iRFP.
FIG. 4C. Tumor dimensions were also measured for each treatment.
FIG. 4D. The survival curve of each treatment group. **and***indicate p<0.01 and p<0.001, respectively.
The in vitro tumor cell suppression effect of 5FU-RNAOG justified further investigation as to whether the combination of the RNAOG with the anticancer drug 5-fluorouracil (5FU) exerts anti-tumor activity in vivo. The human pancreatic cancer cell line, MiaPaca-2, was used as the model because it forms solid tumors in nude mice upon subcutaneous injection (SC). Specifically, MiaPaca-2 cells were engineered to express near infrared fluorescent protein (iRFP) which allows for real-time monitoring of tumor growth of live animals, especially when the tumor load is low. […] Tumor progression was monitored via the fluorescent intensity of iRFP (FIG. 4B), as well as the directly measured tumor size (FIG. 4C). […]

Q: How did the “tumor progression (iRFP fluorescence intensity and tumor size)” value turn out when `O=c1[nH]cc(F)c(=O)[nH]1` [5FU, 5-fluorouracil] was run?
A: Its value is “developed large tumors”.
